# Measurements: ChEMBL document CHEMBL1201862, “PubChem BioAssay data set” (2004)
#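 Exposure lasted 48 hours, with cells grown in 96-well plates and compounds tested at five concentrations. GI50: concentration for 50% inhibition of growth.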 Activity calls are given as the source filed them. No stated cut-off is given here; in the data, active = GI50 up to about 1.1 µM and inactive = higher.
# Legend:
# Assay in all cases: growth of human tumour cells (NCI), 48 h
# [1] = system: COLO 205
# [2] = system: SW-620
# [3] = system: TK-10
# [4] = system: OVCAR-8
# [5] = system: BT-549
# [6] = system: HCT-116
# [7] = system: UACC-257
# [8] = system: CCRF-CEM
# [9] = system: MDA-MB-435
# [10] = system: M14
# [11] = system: RXF 393
# [12] = system: SNB-75
# [13] = system: HOP-62
# [14] = system: 786-0
# [15] = system: HCC 2998
# [16] = system: A549
# [17] = system: IGROV-1
# [18] = system: Malme-3M
# [19] = system: SK-MEL-2
# [20] = system: LOX IMVI
# [21] = system: UO-31
# [22] = system: OVCAR-5
# [23] = system: PC-3
# [24] = system: SF-539
# [25] = system: SK-MEL-5
# [26] = system: SN12C
# [27] = system: NCI-H23
# [28] = system: SNB-19
# [29] = system: Hs-578T
# [30] = system: ACHN
# [31] = system: OVCAR-3
# [32] = system: MDA-N
# [33] = system: EKVX
# [34] = system: K562
# [35] = system: DU-145
# [36] = system: SK-MEL-28
# [37] = system: U-251
# [38] = system: KM12
# [39] = system: NCI/ADR-RES
# [40] = system: HCT-15
# [41] = system: NCI-H460
# [42] = system: NCI-H226
# [43] = system: NCI-H522
# [44] = system: SR
# [45] = system: MOLT-4
# [46] = system: A498
# [47] = system: HT-29
# [48] = system: RPMI-8226
# [49] = system: OVCAR-4
# [50] = system: HOP-92
# [51] = system: SF-268
# [52] = system: MDA-MB-231
# [53] = system: UACC-62
# [54] = system: SF-295
# [55] = system: SK-OV-3
# [56] = system: HL-60
# [57] = system: CAKI-1
# [58] = system: MCF7
# [59] = system: T47D
structure (smiles),measurement,setting,value
CCNC(=S)NNC(=O)CSc1nc2ccc(I)cc2c(=O)n1Cc1ccccc1,GI50,[1],25.7 µM (inactive)
same,GI50,[2],37.8 µM (inactive)
same,GI50,[3],> 51.2 µM (inactive)
same,GI50,[4],22 µM (inactive)
same,GI50,[5],> 54.1 µM (inactive)
same,GI50,[6],6.5 µM (inactive)
same,GI50,[7],17.7 µM (inactive)
same,GI50,[8],7.98 µM (inactive)
same,GI50,[9],12.9 µM (inactive)
same,GI50,[10],38.4 µM (inactive)
same,GI50,[11],11.8 µM (inactive)
same,GI50,[12],> 85.7 µM (inactive)
same,GI50,[13],35.8 µM (inactive)
same,GI50,[14],29.2 µM (inactive)
same,GI50,[15],17.6 µM (inactive)
same,GI50,[16],25.5 µM (inactive)
same,GI50,[17],14.6 µM (inactive)
same,GI50,[18],23.9 µM (inactive)
same,GI50,[19],29.4 µM (inactive)
same,GI50,[20],34.9 µM (inactive)
same,GI50,[21],0.0299 µM (active)
same,GI50,[22],> 100 µM (inactive)
same,GI50,[23],18.5 µM (inactive)
same,GI50,[24],45.8 µM (inactive)
same,GI50,[25],8.65 µM (inactive)
same,GI50,[26],10.2 µM (inactive)
same,GI50,[27],21.6 µM (inactive)
same,GI50,[28],> 87.5 µM (inactive)
same,GI50,[29],29.7 µM (inactive)
same,GI50,[30],5.74 µM (inactive)
same,GI50,[31],18.2 µM (inactive)
same,GI50,[32],13.5 µM (inactive)
same,GI50,[33],15.8 µM (inactive)
same,GI50,[34],10.6 µM (inactive)
same,GI50,[35],> 79.4 µM (inactive)
same,GI50,[36],63.8 µM (inactive)
same,GI50,[37],43.4 µM (inactive)
same,GI50,[38],8.77 µM (inactive)
same,GI50,[39],22 µM (inactive)
same,GI50,[40],14.7 µM
same,GI50,[41],12.6 µM (inactive)
same,GI50,[42],10.5 µM (inactive)
same,GI50,[43],13.1 µM (inactive)
same,GI50,[44],7.43 µM (inactive)
same,GI50,[45],7.48 µM (inactive)
same,GI50,[46],14.5 µM (inactive)
same,GI50,[47],18.1 µM (inactive)
same,GI50,[48],14.8 µM (inactive)
same,GI50,[49],10.8 µM (inactive)
same,GI50,[50],17.3 µM (inactive)
same,GI50,[51],31.9 µM (inactive)
same,GI50,[52],41.5 µM (inactive)
same,GI50,[53],> 27.6 µM (inactive)
same,GI50,[54],25.4 µM (inactive)
same,GI50,[55],35 µM (inactive)
same,GI50,[56],1.81 µM (inactive)
same,GI50,[57],0.374 µM (active)
same,GI50,[58],16.9 µM (inactive)
same,GI50,[59],5.27 µM (inactive)
CC(C)=CCC[C@@H](C)c1c2ncc[nH]c-2c(C)c(=O)c1O,GI50,[1],28.8 µM (inactive)
same,GI50,[2],33.1 µM (inactive)
same,GI50,[3],31.1 µM (inactive)
same,GI50,[4],10 µM (inactive)
same,GI50,[5],30.8 µM (inactive)
same,GI50,[6],37.1 µM (inactive)
same,GI50,[7],31.9 µM (inactive)
same,GI50,[8],4.53 µM (inactive)
same,GI50,[9],41.9 µM (inactive)
same,GI50,[10],27.9 µM (inactive)
same,GI50,[11],24.6 µM (inactive)
same,GI50,[12],28.2 µM (inactive)
same,GI50,[13],19.2 µM (inactive)
same,GI50,[14],39.4 µM (inactive)
same,GI50,[15],31.9 µM (inactive)
same,GI50,[16],22.1 µM (inactive)
same,GI50,[17],26.7 µM (inactive)
same,GI50,[18],13.8 µM (inactive)
same,GI50,[19],18.6 µM (inactive)
same,GI50,[20],25.1 µM (inactive)
same,GI50,[21],6.92 µM (inactive)
same,GI50,[22],45.6 µM (inactive)
same,GI50,[23],35.2 µM (inactive)
same,GI50,[24],22.2 µM (inactive)
same,GI50,[25],11.7 µM (inactive)
same,GI50,[26],28.8 µM (inactive)
same,GI50,[27],22.4 µM (inactive)
same,GI50,[28],25.9 µM (inactive)
same,GI50,[29],23.2 µM (inactive)
same,GI50,[30],12.4 µM (inactive)
same,GI50,[31],27.4 µM (inactive)
same,GI50,[32],37.8 µM (inactive)
same,GI50,[33],26.2 µM (inactive)
same,GI50,[34],21.7 µM (inactive)
same,GI50,[35],31.6 µM (inactive)
same,GI50,[36],48.5 µM (inactive)
same,GI50,[37],43.6 µM (inactive)
same,GI50,[38],10.6 µM (inactive)
same,GI50,[39],4.49 µM (inactive)
same,GI50,[40],6.46 µM
same,GI50,[41],10.8 µM (inactive)
same,GI50,[42],16.9 µM (inactive)
same,GI50,[43],1.76 µM (inactive)
same,GI50,[44],51.3 µM (inactive)
same,GI50,[45],10.4 µM (inactive)
same,GI50,[46],30 µM (inactive)
same,GI50,[47],27.4 µM (inactive)
same,GI50,[48],20 µM (inactive)
same,GI50,[49],26.1 µM (inactive)
same,GI50,[50],23.8 µM (inactive)
same,GI50,[51],15.2 µM (inactive)
same,GI50,[52],25.2 µM (inactive)
same,GI50,[53],18.7 µM (inactive)
same,GI50,[54],16.5 µM (inactive)
same,GI50,[55],31.8 µM (inactive)
same,GI50,[56],7.03 µM (inactive)
same,GI50,[57],35.1 µM (inactive)
same,GI50,[58],36.8 µM (inactive)
same,GI50,[59],25.9 µM (inactive)
